Experimental findings from PMC3001897, “High-Throughput Chemical Screen Identifies a Novel Potent Modulator of Cellular Circadian Rhythms and Reveals CKIα as a Clock Regulatory Kinase” (PLoS Biology, 2010) are described below.

The test system of series [1] is larval per3-luc zebrafish. Kind of series: In vivo luminescence rhythms in per3-luc zebrafish. Particulars: up to 9 µM. How it is done:
The per3-luc transgenic line was obtained from Zebrafish International Resource Center. Hemizygote larval fish were entrained in 12 h light/12 h dark cycles from day 3 to 6 postfertilization. They were then placed in an individual well of a 96-well white solid-bottom plate with 180 µl of E3 solution (5 mM NaCl, 0.17 mM KCl, 0.33 mM CaCl2, and 0.33 mM MgSO4, pH 7.0) containing 0.5 mM luciferin, 0.013% Amquel Plus Instant Water Detoxifier (Kordon brand; Novalek, Hayward, California, United States), and various concentrations of longdaysin (final 0.1% DMSO). The plate was covered with optically clear film, and the luminescence was recorded every 36 min by using the Tecan luminometer at 25°C. The period parameter was obtained from the luminescence rhythm by using MultiCycle software.

For a further series, the system named is SCN explants. Kind of series: Circadian period in SCN explants from mPer2Luc knockin mice. The series is classed as cell-based, mouse. Particulars: 0 to 9 µM. On the procedure: Explants of lung and SCN were dissected from mPer2^Luc knockin mice and cultured in explant medium as described previously. The medium was changed every week with increasing concentration of longdaysin each time (from 0 to 9 µM, final 0.7% DMSO). The luminescence was recorded every 10 min with LumiCycle luminometer (Actimetrics), and the period parameter was obtained by using LumiCycle Analysis software (Actimetrics).

The subject of series [2] is CKIα- and CKIδ-dependent mobility-shift of PER1. The series is described as follows: PER1 electrophoretic mobility-shift (phosphorylation) in HEK293T cells. The series is classed as cell-based. Particulars: 10 or 20 µM, 24 h. On the procedure: HEK293T cells (1.25×10^6 cells) were reverse transfected on 6-well plates by Lipofectamine 2000 with 1 µg each of expression vectors for C-terminally 3XFlag-tagged clock protein (in p3XFLAG-CMV-14, Sigma) and N-terminally HA-tagged kinase (in p3XFLAG-CMV-14). For ERK2, 0.05 µg of expression vector with 0.95 µg of empty vector was used because of its efficient expression. After 24 h, the cells were collected with ice-cold PBS and suspended in 100 µl of incubation buffer [50 mM Tris, 50 mM NaCl, 2 mM EDTA, 10% glycerol, 1 mM DTT, Complete Protease Inhibitor Cocktail (Roche), Phosphatase Inhibitor Cocktail 1 and 2 (Sigma), pH 8.0]. The mixture was supplemented with NP-40 (final 1%) and incubated on ice for 15 min, followed by centrifugation (16,000×g) at 4°C for 10 min. […] The bound proteins were eluted with SDS sample buffer, separated by SDS-PAGE (4%–12% gradient gel), and analyzed by Western blotting with anti-Flag antibody (Sigma, F1804) or anti-HA antibody conjugated with HRP (Roche, 12013819001). For the analysis of PER1 electrophoretic mobility-shift, the cell extracts were separated by SDS-PAGE (3%–8% gradient gel, Invitrogen) and analyzed by Western blotting with anti-Flag antibody or anti-α-tubulin antibody (Santa Cruz Biotechnology, sc-32293). Protein concentration of each sample was measured by the Lowry method using DC protein assay (BioRad).

Series [3] concerns CKIα- and CKIδ-accelerated degradation of PER1. Kind of series: Flag-tagged PER1 degradation by Western blot in HEK293T cells. As to conditions: 24 h. The series is classed as cell-based. For orientation: In western blotting, separated proteins are transferred to a membrane and probed.

On to `CC(C)n1cnc2c(NCc3cccc(C(F)(F)F)c3)ncnc21` [Longdaysin, 9-isopropyl-N-(3-(trifluoromethyl)benzyl)-9H-purin-6-amine], for which the “Effect on body size” value in series [1] (1 wk treatment) is recorded as “without affecting body size”. In series [1] (per3-luc reporter fish, constant darkness), the “Period lengthening in vivo” value is reported as more than 10 h. The “Effect on circadian period” value in the series with SCN explants is “dose-dependent period lengthening”. Moreover, the “Effect on CKIα- and CKIδ-dependent mobility-shift of PER1” value in series [2] was “reduced the CKIα- and CKIδ-dependent mobility-shift of PER1”. Further, the “Inhibition of CKIα and CKIδ effects on PER1 degradation” value in series [3] (10 µM) is listed as “partially inhibited”; in series [3] (20 µM) it was “strongly inhibited”.
